Assay [1] deals with T1, PvrA (Pseudomonas aeruginosa, UniProt Q9HZP1, R136A).
T1 sequence (Q9HZP1 1-212 R136A): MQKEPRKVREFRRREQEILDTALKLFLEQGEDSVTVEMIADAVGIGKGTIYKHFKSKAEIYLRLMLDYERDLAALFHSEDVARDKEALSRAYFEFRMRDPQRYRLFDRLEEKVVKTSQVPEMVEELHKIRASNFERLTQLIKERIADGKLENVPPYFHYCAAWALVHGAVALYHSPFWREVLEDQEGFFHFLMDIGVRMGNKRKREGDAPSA
Briefly: ITC. Type of assay: binding.

The target in assay [2] is T2, PvrA (Pseudomonas aeruginosa, UniProt Q9HZP1).
T2 sequence (Q9HZP1 1-212): T1 sequence (Q9HZP1 1-212 R136A)
Nature of the assay: ITC at […]°C. Type of assay: binding.

Turning to `CCCCCCCCCCCCCCCC(=O)SCCNC(=O)CCNC(=O)[C@H](O)C(C)(C)COP(=O)(O)OP(=O)(O)OC[C@H]1O[C@@H](n2cnc3c(N)ncnc32)[C@H](O)[C@@H]1OP(=O)(O)O` [palmitoyl-coenzyme A], the figures for the Kd at PvrA [1] and on PvrA [2] were 262 µM and 31 µM, respectively.

Values taken from publication PMC7293031 (Nucleic Acids Research, 2020).
